# Test results taken from publication PMC4389443 (Respiratory Research, 2015).
# Key:
# BALB/c mice [1] = experiment: House dust mite/Rhinovirus exacerbated asthma model; assay type: in vivo, mouse; conditions: 24 hours post RV1b infection; for Total BALF neutrophils: PXS-4728A 2, dexamethasone 2, azithromycin 25 mg.kg^−1 ip.
# Procedure: Study performed at the University of Newcastle under local ethics committee. BALB/c mice were sensitized and challenged intranasally to 50 μg of crude HDM extract (Dermatophagoides pteronyssinus extract was obtained from Greer Laboratories) on days 0, 1 and 2 followed by four exposures of 5 μg HDM daily from day 14 to day 17 delivered in 50 μl of sterile saline. Animals were then infected on day 18 with infective Human Rhinovirus 1b RV1B41 (2.5 × 10^6 median tissue culture infective dose) intranasally. Mice were intranasally administered 50 μl infective or ultraviolet light (UV)–inactivated RV1B41. Mice were euthanized 24 hours after the rhinovirus challenge. BAL analysis was performed for total and differential counts and airway hyperreactivity (AHR) was assessed invasively by measurement of total lung resistance and dynamic compliance (BUXCO) in response to methacholine challenge as previously described. […]. Dose of azithromycin was chosen based on previously described findings, in respiratory viral infection models.
# [2] = system: patients with severe neutrophilic asthma; design: method as in PMID 23291349; conditions: significance lost when all patients analysed together; cited from earlier work
# normal volunteers [3] = system: normal volunteers; design: method as in PMID 19643947, PMID 21426372, PMID 24341382; conditions: cited from earlier work
# C57/BL6 mice = experiment: Cecal ligation and puncture (CLP) induced sepsis; conditions: 6 hours; PXS-4728A 6 mg.kg^−1, dexamethasone 5 mg.kg^−1, oral 1 hour prior to surgery
# BALB/c mice [4] = experiment: LPS airway inflammation, 6 hour time point; conditions: 6 hours after LPS; PXS-4728A 0.2 or 2 mg.kg^−1, dexamethasone 10 mg.kg^−1, oral 1 hour prior
# BALB/c mice [5] = experiment: Klebsiella pneumoniae lung infection; conditions: 24 hours
# normal volunteers [6] = system: normal volunteers; design: method as in PMID 19643947, PMID 21426372, PMID 24341382; conditions: cited from earlier work; remark: listed apart in the source
# [7] = PXS-4728A 6 mg.kg^−1, dexamethasone 10 mg.kg^−1, oral 1 hour prior to infection
structure (smiles),measurement,setting,value
CC[C@H]1OC(=O)[C@H](C)[C@@H](O[C@H]2C[C@@](C)(OC)[C@@H](O)[C@H](C)O2)[C@H](C)[C@@H](O[C@@H]2O[C@H](C)C[C@H](N(C)C)[C@H]2O)[C@](C)(O)C[C@@H](C)CN(C)[C@H](C)[C@@H](O)[C@]1(C)O [azithromycin],Airways hyperreactivity to methacholine challenge,"BALB/c mice [1]; PXS-4728A 2, azithromycin 25 mg.kg^−1 ip.",significantly reduced
same,Total BALF neutrophils,BALB/c mice [1],significantly dampened
same,Exacerbation rates,[2],reduced exacerbation rates
CC[C@@H](Nc1c(Nc2cccc(C(=O)N(C)C)c2O)c(=O)c1=O)c1ccc(C)o1 [SCH527123],Increased neutrophil content in sputum as a result of ozone challenge,normal volunteers [3],inhibit
"C[C@@H]1C[C@H]2[C@@H]3CCC4=CC(=O)C=C[C@]4(C)[C@@]3(F)[C@@H](O)C[C@]2(C)[C@@]1(O)C(=O)CO [dexamethasone, reference compound]",Peritoneal neutrophils,C57/BL6 mice,greatly diminished
same,Total peritoneal inflammatory cells,C57/BL6 mice,greatly diminished
same,Influx of neutrophils in BALF,BALB/c mice [4],reduction
same,Total BALF neutrophils,BALB/c mice [1],no impact
same,Neutrophil migration into the airway spaces (BALF),BALB/c mice [5]; [7],significantly dampened
same,Total leukocyte migration into the airway spaces (BALF),BALB/c mice [5]; [7],significantly dampened
same,"Log 10-CFU in the lung (bacterial load), average","BALB/c mice [5]; PXS-4728A 6 mg.kg^−1, dexamethasone 10 mg.kg^−1, vehicle 7.59",8.86 LOG 10-CFU
C[C@H](CO)Nc1nc(SCc2cccc(F)c2F)nc2[nH]c(=O)sc12 [AZD8309],Efficacy during inhaled LPS challenge,normal volunteers [6],efficacious
O=C(Nc1ccc(Cl)c(S(=O)(=O)N2CCNCC2)c1O)Nc1cccc(F)c1Cl [SB-656933],Increased neutrophil content in sputum as a result of ozone challenge,normal volunteers [3],inhibit
